Assay results reported in the SangsterLogP compilation.

Structure (SMILES)	logP
COc1cccc(C(=O)NC2C[C@H]3CC[C@@H](C2)N3Cc2ccccc2)c1OC (stereo partly specified)	3.07
NC(=O)C1(N2CCCCC2)CCN(CCCC(=O)c2ccc(F)cc2)CC1	2.68
OCCN1CCN(CCCN2c3ccccc3Sc3ccc(C(F)(F)F)cc32)CC1	4.55
O=C(NCCN1CCC(n2c(=O)[nH]c3cc(Cl)ccc32)CC1)c1ccc(F)cc1	4.02
CCN1CCCC1CNC(=O)c1cc(S(=O)(=O)CC)ccc1OC (stereo unspecified)	2.05
COc1ccc(S(N)(=O)=O)cc1C(=O)NCC1CCCN1Cc1ccc(F)cc1 (stereo unspecified)	2.08
COc1ccc(S(N)(=O)=O)cc1C(=O)NCC1CCCN1C (stereo unspecified)	1.01
O=c1[nH]c2ccccc2n1C1CCN(CCCC(c2ccc(F)cc2)c2ccc(F)cc2)CC1	6.06
C=CCN1CCCC1CNC(=O)c1cc2[nH]nnc2cc1OC (stereo unspecified)	2.22
CCN1CCCC1CNC(=O)c1cc(S(=O)(=O)CC)c(N)cc1OC (stereo unspecified)	2.42
COc1cc(C(=O)NCc2ccc(OCCN(C)C)cc2)cc(OC)c1OC	2.04
